Laboratory results reported in patent US9290457B2, “Substituted dihydropyrimidinones and their use as inhibitors of neutrophil elastase activity” (Boehringer Ingelheim International GmbH, priority 2014, dated 2016).

How the values were obtained:
[1] = molecular target: hERG (human ether-a-go-go-related gene) potassium channel (Homo sapiens (Human), UniProt Q12809); assay: hERG inhibition patch clamp assay; assay type: cell-based
Description: (§1) Calculations: Fold induction=(Enzyme mRNA Compound)/(Enzyme mRNA Solvent Control) Inducer Potency=(Fold Compound)/(Fold Rifampicin)*100 Assay for Determination of hERG Inhibition
(§2) The inhibition of the hERG (human ether-a-go-go-related gene) potassium channel can be determined as described in Rast, G., & Guth, B. D., Journal of Pharmacological and Toxicological Methods (2014), http://dx.doi.org/10.1016/j.vasen.2014.08.001.

[2] = molecular target: cytochrome P450 2C8 (Homo sapiens (Human), UniProt P10632); assay: Cytochrome P450 2C8 inhibition; assay type: in vitro ADME; conditions: human liver microsomes, Amodiaquine deethylation; read-out: IC50 CYP2C8 inhibition
Procedure: Assay for Determination of Cytochrome P450 2C8 Inhibition
All assays are carried out on a robotic system in 96 well plates. The final incubation volume contains TRIS buffer (0.1 M), MgCl2 (5 mM), human liver microsomes (0.05 mg/ml), Amodiaquine (1 μM) and the test compound at five different concentrations or no compound (high control) in duplicate (e.g. highest concentration 10-50 μM with subsequent serial 1:4 dilutions). Following a short preincubation period, reactions are started with the cofactor (NADPH, 1 mM) and stopped by cooling the incubation down to 8° C. and subsequently by addition of one volume of acetonitrile. An internal standard solution—usually the stable isotope of the formed metabolite—is added after quenching of incubations. Peak area analyte (=metabolite formed) and internal standard is determined by LC-MS/MS. The resulting peak area ratio analyte to internal standard in these incubations is compared to a control activity containing no test compound.
If the inhibition of the reaction is already >50% at the lowest concentration of the test compound, the IC50 is assigned “<lowest concentration tested” (usually <0.4 μM). If the inhibition of the reaction is still <50% at the highest concentration of the test compound, the IC50 is assigned “>highest concentration tested” (usually >50 μM).

[3] = molecular target: hERG potassium channel (Homo sapiens (Human), UniProt Q12809); assay: hERG inhibition patch clamp assay; assay type: cell-based; conditions: human, @ 10 μM
Description: as §1, §2

Sequence of hERG (human ether-a-go-go-related gene) potassium channel (Q12809 whole entry): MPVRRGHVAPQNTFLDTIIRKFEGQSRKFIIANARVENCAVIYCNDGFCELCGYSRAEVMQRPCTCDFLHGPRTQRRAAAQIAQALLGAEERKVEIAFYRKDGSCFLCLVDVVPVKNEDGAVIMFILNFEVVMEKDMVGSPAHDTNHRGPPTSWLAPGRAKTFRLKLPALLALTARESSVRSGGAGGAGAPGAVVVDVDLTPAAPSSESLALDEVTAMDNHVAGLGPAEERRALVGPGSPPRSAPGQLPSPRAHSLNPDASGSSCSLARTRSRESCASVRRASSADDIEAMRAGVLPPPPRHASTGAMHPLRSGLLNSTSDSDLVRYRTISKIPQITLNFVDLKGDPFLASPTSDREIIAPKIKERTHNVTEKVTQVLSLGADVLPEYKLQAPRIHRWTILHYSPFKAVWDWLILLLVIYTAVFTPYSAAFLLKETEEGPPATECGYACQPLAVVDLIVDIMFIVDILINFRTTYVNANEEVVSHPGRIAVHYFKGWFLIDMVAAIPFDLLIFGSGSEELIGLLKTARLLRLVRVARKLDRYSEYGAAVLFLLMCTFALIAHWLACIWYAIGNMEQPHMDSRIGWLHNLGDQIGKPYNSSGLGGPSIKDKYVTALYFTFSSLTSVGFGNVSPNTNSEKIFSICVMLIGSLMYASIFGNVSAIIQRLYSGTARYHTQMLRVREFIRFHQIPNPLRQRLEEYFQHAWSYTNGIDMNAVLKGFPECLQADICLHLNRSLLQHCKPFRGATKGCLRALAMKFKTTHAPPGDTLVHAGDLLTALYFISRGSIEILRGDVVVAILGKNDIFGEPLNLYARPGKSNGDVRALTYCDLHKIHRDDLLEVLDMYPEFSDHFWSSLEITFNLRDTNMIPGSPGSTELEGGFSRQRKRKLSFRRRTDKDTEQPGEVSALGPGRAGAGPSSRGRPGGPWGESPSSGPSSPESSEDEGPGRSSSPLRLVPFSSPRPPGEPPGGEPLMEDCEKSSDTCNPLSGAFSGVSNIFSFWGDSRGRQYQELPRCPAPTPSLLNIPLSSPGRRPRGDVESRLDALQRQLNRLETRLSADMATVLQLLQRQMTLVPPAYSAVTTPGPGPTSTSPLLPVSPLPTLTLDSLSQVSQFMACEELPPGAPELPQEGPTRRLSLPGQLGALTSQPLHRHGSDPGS
Sequence of cytochrome P450 2C8 (P10632 whole entry): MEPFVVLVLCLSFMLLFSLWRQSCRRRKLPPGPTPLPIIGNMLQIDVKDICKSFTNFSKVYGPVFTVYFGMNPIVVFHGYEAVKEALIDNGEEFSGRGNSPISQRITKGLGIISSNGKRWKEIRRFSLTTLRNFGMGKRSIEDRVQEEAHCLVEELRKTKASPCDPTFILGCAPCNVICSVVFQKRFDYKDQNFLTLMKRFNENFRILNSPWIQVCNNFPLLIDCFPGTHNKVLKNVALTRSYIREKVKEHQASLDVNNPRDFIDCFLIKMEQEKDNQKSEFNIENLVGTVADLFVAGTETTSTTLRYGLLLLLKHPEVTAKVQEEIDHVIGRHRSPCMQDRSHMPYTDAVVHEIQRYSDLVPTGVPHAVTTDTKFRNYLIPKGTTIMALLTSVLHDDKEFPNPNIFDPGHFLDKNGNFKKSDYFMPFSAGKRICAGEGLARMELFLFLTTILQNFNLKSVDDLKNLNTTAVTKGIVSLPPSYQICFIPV
Sequence of hERG potassium channel (Q12809 whole entry): as the sequence (Q12809 whole entry) above

| IC50 [2] [µM] | SMILES | IC50 [1] [µM] | hERG inhibition ([1]; @ 10 μM) | inhibition at 10 µM [3] [%] |
| --- | --- | --- | --- | --- |
| > 50 | CNC(=O)c1cc(C#N)ccc1[C@@H]1C(C(C)=O)=C(C)N(c2cccc(C(F)(F)F)c2)C(=O)N1C [Example 13.1] | > 30 | (7% @ 10 μM) | – |
| > 50 | CC(=O)C1=C(C)N(c2cccc(C(F)(F)F)c2)C(=O)N(C)[C@@H]1c1ccc(C#N)cc1-c1ccc(=O)n(C)c1 [Example 16, 4-[(R)-5-Acetyl-3,6-dimethyl-2-oxo-1-(3-trifluoromethyl-phenyl)-1,2,3,4-tetrahydro-pyrimidin-4-yl]-3-(1-methyl-6-oxo-1,6-dihydro-pyridin-3-yl)-benzonitrile] | > 30 | – | 8 |
